Measurements from the METLIN SMRT retention time set (Domingo-Almenara et al. 2019).

assay: gradient 5% acetonitrile 3 min, to 50% in 2 min, to 85% in 15 min, held 3 min, 100 µL/min; settings: column: Zorbax Extend-C18 2.1 x 50 mm; eluents: water / acetonitrile, 0.1% formic acid
Summary of the method: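 The system's dead and dwell volumes were 40 μL and 900 μL, with a Zorbax Extend-C18 column (2.1 × 50 mm, 1.8 μm) run at 100 μL/min in water and acetonitrile containing 0.1% formic acid each. Pure standards were analyzed in mixtures of ~100 molecules by HPLC–quadrupole time-of-flight mass spectrometry in positive and negative ionization mode. Retention time was assigned from computationally picked, manually inspected adduct peaks.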

RP-LC retention time [s]	SMILES
888	Cc1cccc(N(C)C(=O)Cn2c(=O)n(-c3ccc(F)cc3)c(=O)c3c2cc(C)n3C)c1
865	O=C(CCCc1nc(-c2cccnc2)no1)Nc1nc(-c2ccccc2)cs1
693	O=C(Cn1c(C(F)(F)F)nc2cc3c(cc21)OCCO3)NCC1CCCO1 (stereo not given)
561	Cc1cccc(-c2[nH]ncc2CN)c1
725	COc1ccccc1C(=O)N1CCC2(CC1)NC(=O)c1ccc(F)cc1N2C
1070	COc1ccc(S(=O)(=O)N2CCC(OCCOc3ccccc3)CC2)cc1
846	Fc1ccc(OCc2nnc3sc(-c4ccccn4)nn23)cc1
928	COc1cc(OC)c(-n2nnc(-c3nsc(Nc4ccc(OC)c(OC)c4)n3)c2C)cc1Cl
852	Cc1ccc(-c2csc(NC(=O)CCc3nc(CSc4nc5ccc(C)cc5[nH]4)no3)n2)cc1
725	Cc1ccc(NC(=O)N2CCN(Cc3nc4cc(C)ccc4o3)CC2)cc1
567	O=C1NCCCCCN(C(=O)CN2CCCCCC2)[C@H]2CCC[C@@H]12
730	CCN1CCn2cc(S(=O)(=O)Nc3ccc(OC)c(Cl)c3)cc2C1=O
700	COc1ccc(-c2cc3n(n2)CCCN(C(=O)C2CCCO2)C3)cc1 (stereo not given)
643	CCOC(=O)N1CCN(C(=O)CN2C(=O)c3ccccc3S2(=O)=O)CC1
748	COCCNC(=O)c1ccc2c(c1)N(Cc1ccc(C)cc1)C(=O)CO2
630	Cc1cc(C)n(Cc2ccc(C(=O)N3C[C@H]4C[C@H](C3)[C@H]3CCCC(=O)N3C4)o2)n1
797	CCOc1nc2ccccc2nc1N1CCCC(C(=O)Nc2ccc(F)c(Cl)c2)C1 (stereo not given)
846	Cc1c(C(=O)N2CCCCC2C)sc2ncn(CC(=O)N3CC(C)CC(C)C3)c(=O)c12 (stereo not given)
1250	Cc1cccc(OCc2nc(-c3cccc(-c4csc(C)n4)c3)no2)c1
704	O=C(NCc1ccc(Cl)cc1)C1CCc2nc(N3CCOCC3)ncc2C1 (stereo not given)
742	CC(=O)N(C)c1ccc(NS(=O)(=O)c2ccc(C)cc2)c([N+](=O)[O-])c1
714	COc1ccc(Cn2c(C)c(CNCc3ccc(C)o3)c(C(=O)O)c2C)cc1

RP-LC retention time [s]	SMILES
654	Cc1ccn2cc(-c3ccc(NC(=O)Nc4ccc(F)cc4)cc3)nc2n1
1090	O=C(NCCc1ccc(N2CCCC2)cc1)C(=O)Nc1ccc(OC(F)(F)F)cc1
716	O=C(c1cc2c(=O)n(Cc3ccccc3)ccc2s1)N1CCOCC1
713	O=C(NC1CC1)C1CCN(C(=O)c2ncn3c2COC(c2ccc(Cl)cc2)C3)CC1 (stereo not given)
1310	Clc1ccc(-c2csc(Cc3nc(-c4ccccc4)no3)n2)cc1
642	COc1ccc(OC)c(S(=O)(=O)Nc2ccc(-c3cn4ccc(C)nc4n3)cc2)c1
623	O=C1COc2c1ccc(O)c2O
859	COc1ccc(-n2ccn3cc(-c4ccc(F)cc4)nc3c2=O)cc1Cl
826	CCOc1ccc(S(=O)(=O)NCCC(O)C(C)(C)C)cc1F (stereo not given)
1200	COc1cccc(N2CCN(S(=O)(=O)c3cc(-c4cc(C(F)(F)F)on4)cs3)CC2)c1
649	O=C(c1c[nH]c2ccccc12)N1CCCC1c1nc(-c2ccccc2)n[nH]1 (stereo not given)
1050	CCc1nc2cc(-c3noc(Cc4cccc(F)c4)n3)ccc2o1
631	Cc1ccsc1C(=O)N1CCN(C(=O)c2cc(-c3ccccn3)n[nH]2)CC1
578	Cn1nccc1C(=O)N1CCC(Cc2nc(C3CC3)n[nH]2)C1 (stereo not given)
971	Cc1ccc(S(=O)(=O)N(C)C)cc1-c1nnc(-c2ccccc2)o1
1060	CC1CCN(c2cc(-n3cnc(C(=O)Nc4ccc5c(c4)OCO5)c3)ncn2)CC1
1040	C=CCN(CC=C)C(=O)Cn1c(C)c(Cc2ccccc2)c(=O)n2nc(-c3ccccc3)nc12
1100	COc1ccc(C)cc1NC(=O)Cn1nc2cc(C)nc(Nc3ccc(F)cc3)n2c1=O
723	Cc1cccc(NC(=O)N2CCC3(CC2)NC(=O)c2ccccc2O3)c1
601	CCOC(=O)CNC(=O)N1CCN(Cc2nc3cc(-c4ccccc4)ccc3o2)CC1
689	CCOC(=O)CC1(NC(=O)Nc2ccc3nc(C)cc(OC)c3c2)CCCCC1
861	O=C(NCc1csc(-c2ccccc2)n1)[C@H]1CCCN1C(=O)COc1ccc(Cl)cc1

RP-LC retention time [s]	SMILES
842	Cc1ccc(-c2nc(-c3ccc4ncn(C)c4c3)no2)cc1C
1090	COc1ccc(C(=O)CSc2nc(-c3ccc(OC)cc3)ns2)cc1
724	CCC(CO)NC(=O)C(=O)NCCC1=CCCCC1 (stereo not given)
634	O=C(NCc1ccc(N2CCCC2)nc1)c1ccc(Cl)s1
653	Cc1c(F)cccc1NC(=O)N1C[C@@H](F)C[C@H]1C(=O)N1CCOCC1
641	CC(C)CCCC(C)N (stereo not given)
670	CCOc1ccc(NC(=O)Cc2nnc(-c3ccncc3)o2)cc1
636	Cn1c(=O)n(C)c2cc(S(=O)(=O)NCc3ccco3)ccc21
758	Cc1ccccc1NC(=O)COc1cccc2c(=O)n(C)ccc12
875	COC(=O)c1ccc(N2C=C(C#N)S(=O)(=O)c3ccc(F)cc32)cc1
740	Cc1ccc(NC(=O)Cn2c(C(C)C)nc3c(c2=O)CCN(Cc2ccccc2)C3)cc1F
920	O=C1Nc2ccccc2OC1C(=O)N1CCC(Cc2ccccc2)CC1 (stereo not given)
577	O=C(NCc1ccc(F)cc1)N1CC(n2ccnc2)C1
974	CC(C)(C)c1csc(-c2csc(S(=O)(=O)N3CCN(c4ccccn4)CC3)c2)n1
1210	COC(=O)c1ccc2c(=O)n(Cc3ccc(F)cc3)c(N3CCCCC3)nc2c1
636	CCCNC(=O)c1cn(-c2ccc(NC(=O)CC)cn2)cn1
895	CN(C)S(=O)(=O)c1ccc2c(c1)cc(C(=O)NCCc1c[nH]c3ccccc13)n2C
813	CN1C(=O)c2cc(C(=O)NCCCc3ccccc3)nn2CC1(C)C(=O)NCc1ccc(F)cc1 (stereo not given)
596	CCOCCCNC(=O)Nc1ccc2nc(N3CCOCC3)cc(C)c2c1
574	O=C(Cc1ccccc1)Nc1c(-c2ccccc2)nc2ccccn12
929	COc1ccc(C2C(C(=O)Nc3cc(OC)ccc3OC)c3ccccc3C(=O)N2C)cc1 (stereo not given)
656	CCCNC(=O)C1CCN(c2ccc(SCC(=O)Nc3cc(C)ccc3C)nn2)CC1

RP-LC retention time [s]	SMILES
658	Cc1cnc(-n2nnc(C(=O)N3CCOCC3)c2C)s1
604	Cc1ccc(NC(=O)N2CCC(N3CCN(Cc4ccccn4)C(=O)C3=O)CC2)cc1
701	CCOC(=O)c1c(S(=O)(=O)N2CCC(C(=O)Nc3cccc(C)n3)CC2)c(C)n(C)c1C
615	Nc1nc(N2CCCC2)ncc1C(=O)NCc1ccccc1
788	Cc1ccc(OCC(=O)Nc2nnc(C3CC(=O)N(c4ccc(Cl)cc4)C3)o2)cc1 (stereo not given)
1010	Cc1noc(C)c1-c1ccc(S(=O)(=O)NC2CCCCCC2)cc1
891	O=c1n(Cc2ccccc2F)nc2c(S(=O)(=O)N3CCCCC3)cccn12
698	O=C(c1ccc(C(F)(F)F)cc1)N1CCN(c2nnc3ccccn23)CC1
699	COc1ccc(S(=O)(=O)Nc2c(C)n(C)n(-c3ccccc3)c2=O)cc1[N+](=O)[O-]
957	COc1cccc(-c2noc(Cn3c(=O)n(-c4cccc(F)c4)c(=O)c4sccc43)n2)c1
628	CN(C)CCNC(=O)c1c(-c2ccccc2)c(-c2ccccc2)nn(C)c1=O
882	COc1ccc(CC2C(=O)Nc3ccc(Br)cc32)cc1 (stereo not given)
914	COc1ccc(C)cc1NC(=O)NC1CCN(c2ccc(F)c(C)c2)C1=O (stereo not given)
776	NC(=O)c1cc(-c2ccc(F)cc2)nc2ccccc12
944	Cc1csc(-c2cc(S(=O)(=O)Nc3ccc(Cl)cc3F)cn2CC(=O)N2CCCC2)n1
568	O=C(Nc1ccccc1)c1ccc(N2CCC(NCc3ccc(F)c(F)c3)C2)nc1 (stereo not given)
635	Nc1ccc2c(c1)S(=O)(=O)c1cc(N)ccc1-2
776	CCc1cc(=O)n(CC(=O)Nc2cc(F)ccc2C)c(N2CCOCC2)n1
786	CCC(C)NS(=O)(=O)c1cccc(-c2nc(-c3ccccc3)no2)c1 (stereo not given)
687	Cc1ccc(F)c(NS(=O)(=O)c2cc3n(c2)CCCN(C)C3=O)c1
772	COc1ccccc1NC(=O)Cn1c(C)nc2onc(C)c2c1=O
675	O=C(NCc1ccc(Cl)cc1)c1ccc2c(c1)nc1n2CCN(Cc2ccccn2)C1=O

SMILES	RP-LC retention time [s]
Cc1noc(C)c1CC(=O)N1CCC2(CC1)N(CC1CC1)C(=O)CS2=O (stereo not given)	613
O=C(CN1CC=C(c2cnn(-c3ccccc3)c2)CC1)NCC1CCCO1 (stereo not given)	612
